Values quoted from earlier work as cited in patent publication US8603436B2, “Methods and compositions for targeted drug delivery” (priority 2000, dated 2013).
Like-named read-outs stand apart in the source and are kept apart here. Square brackets hold non-standard residues; d marks the D form. Peptide text beside a SMILES is read from it. * marks the point of attachment. X1 = NCCCC[C@H](NC(=O)[C@H](CS)NC(=O)[C@H](CCCCN)NC(=O)[C@@H](N)CNC(=O)C*)C(N)=O; NMeF = CN[C@@H](Cc1ccccc1)C(=O)O; hCys = N[C@@H](CCS)C(=O)O

What was measured:
glioblastoma cells = details: in vitro
tumor [1] = details: tumor models and individual patients
[2] = tested on: ssr subtypes present in rat pancreas carcinoma membranes; details: free (unlabeled) peptide
tumor [3] = details: in vivo

N[C@@H](Cc1ccc(B(O)O)cc1)C(=O)O [BPA, p-boronophenylalanine]
concentration in lysosomes relative to cytosolic concentration (glioblastoma cells): 100 fold lower
concentration in microsomes relative to cytosolic concentration (glioblastoma cells): 125 fold lower
concentration in nuclei relative to cytosolic concentration (glioblastoma cells): 80 fold lower
time to maximum uptake into whole glioblastoma cells (glioblastoma cells): 1 h
cytosolic concentration (glioblastoma cells; at maximum uptake): 250 ng per million of glioma cells
tumor enrichment factor (tumor [1]): ≤ 3

CC(C)[C@@H]1NC(=O)[C@H](CCCCN)NC(=O)[C@@H](Cc2c[nH]c3ccccc23)NC(=O)[C@H](Cc2ccc(O)cc2)NC(=O)[C@H](Cc2ccccc2)N(C)C(=O)[C@H](CCSCC(=O)NC[C@H](N)C(=O)N[C@@H](CCCCN)C(=O)N[C@@H](CS)C(=O)N[C@@H](CCCCN)C(N)=O)NC1=O [depreotide] (cyclo([hCys](X1)[NMeF]Y[dW]KV))
apparent affinity of the free peptide compared with octreotide [2]: one order of magnitude lower

beta-5-o-carboranyl-2′-deoxyuridine [D-CDU]
tumor enrichment factor (tumor [3]): ~100

boronated protoporphyrin [BOPP]
subcellular accumulation (lysosomes): accumulate in lysosomes, but not in mitochondria or the nucleus
